Measured values taken from patent publication US6127342A, “Method for preventing or treating a lung disease caused by active oxygen and free radical injury” (Teijin Limited, priority 1991, dated 2000).

Columns and labels:
Assay type in all cases: in vivo
[1] = test system: liver ischemia-reperfusion model using rats; test: Adenine nucleotides in hepatic vein immediately after starting reperfusion; conditions: rat; 50 mg/kg i.v.
Experimental: Male Wister rats weighing 250-300 g were fasted with free access to water 24 hours before the experiment. Seventy-two rats were divided into three groups of 24 animals each, i.e., the control group, the GSH administration group and the γ-GCE-administration group. Each rat was anesthetized by intraperitoneal administration of 40 mg/0.8 ml/kg of sodium pentobarbital, and the femoral vein was cannulated. In the GSH group and the γ-GCE group, 50 mg/kg of GSH or γ-GCE respectively were administered intravenously. Physiological saline was then infused for volume replacement in each group, as a continuous intravenous infusion at a rate of 0.8 ml/hr with an injection pump throughout the experiment. Thirty minutes after starting injection of physiological saline, the abdomon was opened by a midline incision and the liver hilus was exposed. According to the method described by Hasselgren, et al. in J. Surg. Res., Vol. 34, pp. 409-414, 1984, all vessels to the left and median lobes of the liver, more specifically, hepatic artery, portal vein and the bile duct, were clamped to produce an ischemic state for 2 hours. Since blood vessels to the remaining parts of the liver were not occluded by this method, poral stasis could be avoided which was of special relevance for circulation stability in rats. Thereafter, occlusion of all vessels was released by removing the clamp to allow reperfusion for 1 hour. The abdominal walls were closed during ischemia and reperfusion. […]
Evaluation of ischemia-reperfusion injury was performed by measuring liver tissue (1) mitochondrial function, (2) glutathione concentration, (3) adenine nucleotides concentration, and (4) lipid peroxide concentration, as well as liver tissue derived (5) adenine nucleotides concentration in the hepatic vein immediately after starting reperfusion, and (6) liver cell enzyme activities in the blood after 1 hour of reperfusion. More specifically, the mitochondrial function in (1) was measured according to the method described by Chance, et al. in Adv. […] In addition, the quantitative determination of glutathione in (2) was performed using the same method as Experiment 1 on supernatant obtained by adding 10 vol/g of tissue weight of 2.5% (w/v) sulfosalicylic acid dihydrate aqueous solution to the liver tissue followed by homogenization and centrifugation. In addition, the quantitative determination of adenine nucleotides in (3) was performed by neutralizing the perchloric acid extract of the liver tissue with potassium hydroxide followed by removal of the precipitate and applying to an ion exchange HPLC column according to the method described by Sugino, et al. in J. Chromatogr., Vol. 361, pp. 427-431, 1986. […]

[2] = test system: cardiac muscle mitochondria; test: Cardiac muscle mitochondrial function (St. III O2, RCI) after coronary ischemia-reperfusion; conditions: dog; 10 mg/kg i.v. just before reperfusion; FIGS. 1A and 1B
Text: Electrocardiogram electrodes were attached, and monitoring and recording were continued throughout the experiment. Following insertion of cannulas in the right femoral vein and right femoral artery, the cannulas were used for continuous intravenous drip of physiological saline to replenish water or administration of the test preparation, and monitoring of arterial blood pressure, respectively. After performing left thoracotomy in the fourth or fifth intercostal space, the pericardium was torn to expose the heart. Ischemia was induced by ligating the left anterior descending coronary artery immediately distal to the first diagonal branch, while reperfusion was performed by subsequently removing that ligation. The animals were divided into four groups. […] Mitochondria was obtained by removing the heart immediately after the end of ischemia or reperfusion, washing with cold physiological saline, promptly cutting out the ischemic or reperfused area and the normal area, and immediately performing preparation from the respective area according to the method described by […], et al. in Arch. Biochem. Biophys., Vol. 94, pp. 148-155, 1961. The glutathione content of the mitochondria was measured by applying the method described by Tietze in Anal. […] Evaluation of mitochondrial function was performed according to the method described by Sugiyama, et al. in Am. […]

[3] = test system: coronary ischemia-reperfusion model using dogs; test: Arrhythmia during coronary ischemia and reperfusion (electrocardiogram); conditions: dog; for Number of Ventricular Premature Beats, 1 Hour of Reperfusion / Total Duration of Ventricular Tachycardia, 1 Hour of Reperfusion / effect on total duration of ventricular tachycardia during reperfusion / occurrence of arrhythmia (ventricular premature beats) during reperfusion: 10 mg/kg i.v. just before reperfusion; for Number of Ventricular Premature Beats, 2 Hours of Ischemia / Total Duration of Ventricular Tachycardia, 2 Hours of Ischemia: during 2 h ischemia, before the drug was given
Experimental: (§1) After anesthetizing 52 adult mongrel dogs of either sex weighing ca. 10 kg by intraperitoneal administration of 50 mg/kg of sodium pentobarbital, breathing tubes were immediately intubated endotracheally and artificial ventilation was continued using a Harvard ventilator. Electrocardiogram electrodes were attached, and monitoring and recording were continued throughout the experiment. Following insertion of cannulas in the right femoral vein and right femoral artery, the cannulas were used for continuous intravenous drip of physiological saline to replenish water or administration of the test preparation, and monitoring of arterial blood pressure, respectively. After performing left thoracotomy in the fourth or fifth intercostal space, the pericardium was torn to expose the heart. Ischemia was induced by ligating the left anterior descending coronary artery immediately distal to the first diagonal branch, while reperfusion was performed by subsequently removing that ligation.
(§2) The animals were divided into four groups. Group 1 (n=9) was subjected to ischemia for 2 hours, group 2 (n=17) was subjected to ischemia for 2 hours followed by reperfusion for 1 hour, group 3 (n=10) was subjected to ischemia for 2 hours followed by reperfusion for 1 hour plus intravenous injection of 10 mg/kg of γ-GCE just before reperfusion, and group 4 (n=16) was subjected to 2 hours of ischemia followed by 1 hour of reperfusion plus intravenous injection of 10 mg/kg of reduced glutathione (GSH, control drug) just before reperfusion.
Evaluation of arrhythmia was performed by analyzing the electrocardiogram to determine the presence of arrhythmia, or in other words, the number of ventricular premature beats, as well as the total duration of ventricular tachycardia, which was defined as more than three successive ventricular premature beats.

[4] = test system: liver ischemia-reperfusion model using rats; test: Liver lipid peroxide concentration (thiobarbiturate method); conditions: rat; 50 mg/kg i.v.; after 1 hour reperfusion
Experimental: Male Wister rats weighing 250-300 g were fasted with free access to water 24 hours before the experiment. Seventy-two rats were divided into three groups of 24 animals each, i.e., the control group, the GSH administration group and the γ-GCE-administration group. Each rat was anesthetized by intraperitoneal administration of 40 mg/0.8 ml/kg of sodium pentobarbital, and the femoral vein was cannulated. In the GSH group and the γ-GCE group, 50 mg/kg of GSH or γ-GCE respectively were administered intravenously. Physiological saline was then infused for volume replacement in each group, as a continuous intravenous infusion at a rate of 0.8 ml/hr with an injection pump throughout the experiment. Thirty minutes after starting injection of physiological saline, the abdomon was opened by a midline incision and the liver hilus was exposed. […]
Evaluation of ischemia-reperfusion injury was performed by measuring liver tissue (1) mitochondrial function, (2) glutathione concentration, (3) adenine nucleotides concentration, and (4) lipid peroxide concentration, as well as liver tissue derived (5) adenine nucleotides concentration in the hepatic vein immediately after starting reperfusion, and (6) liver cell enzyme activities in the blood after 1 hour of reperfusion. More specifically, the mitochondrial function in (1) was measured according to the method described by Chance, et al. in Adv. […]

[5] = test system: liver ischemia-reperfusion model using rats; test: Serum AST, ALT and LDH after 1 hour of reperfusion; conditions: rat; 50 mg/kg i.v.
Experimental: Male Wister rats weighing 250-300 g were fasted with free access to water 24 hours before the experiment. Seventy-two rats were divided into three groups of 24 animals each, i.e., the control group, the GSH administration group and the γ-GCE-administration group. Each rat was anesthetized by intraperitoneal administration of 40 mg/0.8 ml/kg of sodium pentobarbital, and the femoral vein was cannulated. In the GSH group and the γ-GCE group, 50 mg/kg of GSH or γ-GCE respectively were administered intravenously. Physiological saline was then infused for volume replacement in each group, as a continuous intravenous infusion at a rate of 0.8 ml/hr with an injection pump throughout the experiment. Thirty minutes after starting injection of physiological saline, the abdomon was opened by a midline incision and the liver hilus was exposed. According to the method described by Hasselgren, et al. in J. Surg. Res., Vol. 34, pp. 409-414, 1984, all vessels to the left and median lobes of the liver, more specifically, hepatic artery, portal vein and the bile duct, were clamped to produce an ischemic state for 2 hours. Since blood vessels to the remaining parts of the liver were not occluded by this method, poral stasis could be avoided which was of special relevance for circulation stability in rats. Thereafter, occlusion of all vessels was released by removing the clamp to allow reperfusion for 1 hour. The abdominal walls were closed during ischemia and reperfusion.
Using 18 rats in each group, the livers of 6 animals from each group were removed before ischemia, after 2 hours of ischemia, and after 1 hour of reperfusion, respectively. A portion of the liver from each animal was rapidly frozen in liquid nitrogen and used for measurement of glutathione,adenine nucleotides and lipid peroxide. From the remaining portion of the liver, mitochondria was immediately extracted according to the method described by Hogeboom and Schneider in the J. Biol. Chem., Vol. 172, p. 619, 1948. In other experiments, immediately after starting reperfusion, blood from the hepatic vein was collected using 6 rats from each group. These blood samples were then used to measure leaked adenine nucleotides. In addition, after 1 hour of said reperfusion, blood samples were also drawn, which were then used to measure the activity of the leaked liver cell enzymes.
Evaluation of ischemia-reperfusion injury was performed by measuring liver tissue (1) mitochondrial function, (2) glutathione concentration, (3) adenine nucleotides concentration, and (4) lipid peroxide concentration, as well as liver tissue derived (5) adenine nucleotides concentration in the hepatic vein immediately after starting reperfusion, and (6) liver cell enzyme activities in the blood after 1 hour of reperfusion. More specifically, the mitochondrial function in (1) was measured according to the method described by Chance, et al. in Adv. Enzymol., Vol. 17, p. 65, 1956. In addition, the quantitative determination of glutathione in (2) was performed using the same method as Experiment 1 on supernatant obtained by adding 10 vol/g of tissue weight of 2.5% (w/v) sulfosalicylic acid dihydrate aqueous solution to the liver tissue followed by homogenization and centrifugation. In addition, the quantitative determination of adenine nucleotides in (3) was performed by neutralizing the perchloric acid extract of the liver tissue with potassium hydroxide followed by removal of the precipitate and applying to an ion exchange HPLC column according to the method described by Sugino, et al. in J. Chromatogr., Vol. 361, pp. 427-431, 1986. In addition, the measurement of lipid peroxide in (4) was performed according to the thiobarbiturate method described by Ohkawa, et al. in Anal. Biochem., Vol. 95, p. 351, 1979. […]

[6] = test system: coronary ischemia-reperfusion model using dogs; test: Mortality during coronary ischemia-reperfusion in dogs; conditions: dog; for Mortality rate (number of dogs that died / number of dogs in experiment), 1 hour of reperfusion: 1 hour of reperfusion after 10 mg/kg i.v. just before reperfusion; for Mortality rate (number of dogs that died / number of dogs in experiment), 2 hours of ischemia: before the drug was given (10 mg/kg i.v. just before reperfusion)
Experimental: as §1, §2

[7] = 10 mg/kg i.v. just before reperfusion

Compound | Adenine nucleotides concentration in hepatic vein immediately after starting reperfusion [1] [μmol/L serum] | effect on leakage of adenine nucleotides into the hepatic vein [1] | effect on reduction in cardiac muscle mitochondrial function (St. III O2, RCI) during reperfusion [2] | Number of Ventricular Premature Beats, 1 Hour of Reperfusion [3] | Total Duration of Ventricular Tachycardia, 1 Hour of Reperfusion [3] [s] | effect on total duration of ventricular tachycardia during reperfusion [3] | occurrence of arrhythmia (ventricular premature beats) during reperfusion [3] | Number of Ventricular Premature Beats, 2 Hours of Ischemia [3] | Total Duration of Ventricular Tachycardia, 2 Hours of Ischemia [3] [s] | Concentration of liver lipid peroxide following reperfusion [4] [nmol/mg protein] | Serum ALT after 1 hour of reperfusion [5] [IU/L] | Serum AST after 1 hour of reperfusion [5] [IU/L] | Serum LDH after 1 hour of reperfusion [5] [IU/L] | effect on leakage of liver cell enzymes into the blood following 1 hour of reperfusion [5] | animals died due to ventricular fibrillation during reperfusion [6, 7] | Mortality rate (number of dogs that died / number of dogs in experiment), 1 hour of reperfusion [6] | Mortality rate (number of dogs that died / number of dogs in experiment), 2 hours of ischemia [6] | reduction of leakage of adenine nucleotides into the hepatic vein immediately after starting reperfusion [1] | mortality rate during reperfusion [6, 7]
N[C@@H](CCC(=O)N[C@@H](CS)C(=O)NCC(=O)O)C(=O)O [GSH, reduced glutathione, reference compound] | 3.59 ± 1.28 | did not significantly mitigate the leakage | no protective effects were observed whatsoever | 1731 ± 1574 | 983 ± 959 | did not show such effect whatsoever | not suppressed at all | 42 ± 43 | 1 ± 2 | 9.1±2.0 | 2337 ± 571 | 3914 ± 1102 | 26435 ± 12191 | did not significantly mitigate the leakage | ca. 50% | 7/15 | 1/16 | – | –
CCOC(=O)[C@H](CS)NC(=O)CC[C@H](N)C(=O)O [γ-GCE, γ-L-glutamyl-L-cysteine ethyl ester] | 1.96 ± 0.80 | – | completely suppressed | 32 ± 30 | 3 ± 5 | remarkably suppressed its increase during reperfusion | strikingly suppressed | 40 ± 51 | 1 ± 2 | 6.56±0.6 | 924 ± 330 | 2071 ± 625 | 14678 ± 2763 | significantly reduced leakage of enzymes from liver cells | – | 0/8 | 2/10 | over 50% | 0
